Assay results taken from patent US20190282580A1, “PRO-INFLAMMATORY ROLE FOR ADENOSINE UPTAKE AND METABOLISM” (priority 2016, published 2019).
Entries after “also recorded” stand apart in the source; their conditions may differ.

Experiments:
[1] = tested on: IRF3; test: IRF3 nuclear translocation (in situ immunofluorescence) in primary human endothelial cells after dsDNA or hCMV; format: cell-based; details: primary human endothelial cells (HUVEC) supplemented with the substance, then DNA treatment or hCMV infection
Excerpt: (§1) Extracellular Ado supplementation enhances anti-viral innate responses: To date, all loss-of function mutations in ADA2 that cause PAN/DADA2 vasculitis either reduce protein levels of ADA2 or dramatically impair enzymatic activity of ADA2, such that loss of enzymatic activity in serum is the defining characteristic of the disease. Loss of ADA2 activity in serum alters catabolism of Ado/dAdo released into circulation from cells and tissues, or produced by dephosphorylation of extracellular ATP/dATP. Ado and dAdo are profoundly immuno-modulatory nucleosides, exerting many effects on cells. Vascular endothelial cells metabolize Ado/dAdo in blood, yet excessive or dysregulated Ado/dAdo signaling has not been examined in endothelium. To examine the effects of Ado on vascular endothelial cells, HUVEC were supplemented with extracellular Ado 24 h prior to treatment with DNA or infection with hCMV.
Cells: Primary human cells were obtained from Lonza as single donor aliquots. Wherever possible, both male and female donors were analyzed. Human umbilical vascular endothelial cells (HUVEC) and Human aortic endothelial cells (HAEC) were maintained in EGM-2 Bulletkit growth media (Lonza) supplemented with 2% HI-FBS. […]
IRF3 immunostaining: Cells were fixed with 4% PFA for 20 min, washed 3 times with 1×PBS, permeabilized with 0.2% Triton X-100 for 10 min, and blocked with 10% FBS for 30 min Cells were incubated with IRF-3 primary antibody (clone FL-425, Santa Cruz) at 1:200 dilution for 30 min and washed 3 times with 1×PBS. […] Images were acquired at 10× magnification on ImageXpress Micro (Molecular Devices), and images were analyzed using the enhanced translocation module of MetaXpress (Molecular Devices). Individual cells were scored as positive for nuclear translocation if >70% of IRF3 fluorescence was spatially correlated with DAPI fluorescence. […]

[2] = tested on: IFNβ; test: IFNβ induction (TaqMan qRT-PCR) in primary human endothelial cells after dsDNA or hCMV; format: cell-based; details: for IFNβ induction: HUVEC supplemented with the substance, then DNA treatment or hCMV infection
Excerpt: as §1
Cells: Primary human cells were obtained from Lonza as single donor aliquots. Wherever possible, both male and female donors were analyzed. Human umbilical vascular endothelial cells (HUVEC) and Human aortic endothelial cells (HAEC) were maintained in EGM-2 Bulletkit growth media (Lonza) supplemented with 2% HI-FBS. Human dermal microvascular endothelial cells (HDMVEC), human brain microvascular endothelial cells (HBMVEC), and human kidney microvascular endothelial cells (HKMVEC) were maintained in EBM-2MV Bulletkit growth media (Lonza) supplemented with 5% HI-FBS. Normal human bronchial […] cells (NHBE) were maintained in BEGM Bulletkit growth media (Lonza). U937 were maintained in RPMI supplemented with 5% HI-FBS. For activation of cell-intrinsic innate immune responses through the STING-IFN-I pathway, all cells were stimulated for 3 h with poly dA:dT or VACV70 dsDNA (200-1000 ng/mL) using LyoVec as a transfection reagent (Invivogen), or infected for 3 h with hCMV MOLD at MOI=1.
Real-time PCR: Total RNA was extracted using the Quick-RNA MiniPrep Plus kit (Zymo Research). Total RNA (200-1000 ng) was used to synthesize complementary DNA using the qScript cDNA synthesis kit (Quanta). Samples were diluted 10-fold and gene expression was analyzed by real-time quantitative PCR on a CFX96 Touch Detection System (Bio-Rad) using FastStart SYBR Green Master Mix (Roche) or TaqMan Universal PCR Master Mix (ThermoFisher Scientific). […]

[3] = tested on: pro-inflammatory and anti-viral genes; test: Pro-inflammatory cytokine and innate immune gene expression in endothelial cells (qRT-PCR, RNAseq); format: cell-based, human; details: for pro-inflammatory cytokine production: after viral infection, extracellular supplementation; for expression of IL-6 and TNF cytokines: endothelial cells after supplementation
Procedure: (§2) Real-time PCR: Total RNA was extracted using the Quick-RNA MiniPrep Plus kit (Zymo Research). Total RNA (200-1000 ng) was used to synthesize complementary DNA using the qScript cDNA synthesis kit (Quanta). Samples were diluted 10-fold and gene expression was analyzed by real-time quantitative PCR on a CFX96 Touch Detection System (Bio-Rad) using FastStart SYBR Green Master Mix (Roche) or TaqMan Universal PCR Master Mix (ThermoFisher Scientific).
RNAseq: Total RNA was extracted from 10^7 cultured cells using the Quick-RNA MiniPrep Plus kit (Zymo Research). RNA quality was assessed using an Agilent Tapestation, such that all samples should produce RIN^e scores above 9.0. For each sample, 500-1000 ng of total RNA was then prepared into an mRNA library using the Truseq Stranded mRNA Library Prep Kit (Illumina). Resulting libraries were then pooled at equimolar concentrations using Quant-iT PicoGreen dsDNA Assay Kit (Life Technologies) and were deep sequenced on an Illumina 2500 in Rapid Run Mode, producing between 10M and 90M single-end reads with lengths of 50 nucleotides per sample.
The single-end reads that passed Illumina filters were filtered for reads aligning to tRNA, rRNA, adapter sequences, and spike-in controls. The reads were then aligned to UCSC hg19 reference genome using TopHat (v 1.4.1). DUST scores were calculated with PRINSEQ Lite (v 0.20.3) and low-complexity reads (DUST>4) were removed from the BAM files. The alignment results were parsed via the SAMtools to generate SAM files. Read counts to each genomic feature were obtained with the htseq-count program (v 0.6.0) using the “union” option. After removing absent features (zero counts in all samples), the raw counts were then imported to R/Bioconductor package DESeq2 [5] to identify differentially expressed genes among samples. DESeq2 normalizes counts by dividing each column of the count table (samples) by the size factor of this column. The size factor is calculated by dividing the samples by geometric means of the genes. This brings the count values to a common scale suitable for comparison. P-values for differential expression are calculated using binomial test for differences between the base means of two conditions. These p-values are then adjusted for multiple test correction using Benjamin Hochberg algorithm to control the false discovery rate. […] Cluster analyses including principal component analysis (PCA) and hierarchical clustering were performed using standard algorithms and metrics. Hierarchical clustering was performed using complete linkage with Euclidean metric.

[4] = tested on: vascular endothelium; details: references 22-24; cited from earlier work
[5] = tested on: STING; test: STING mRNA expression (TaqMan qRT-PCR) in HUVEC; format: cell-based, human; details: supplemented cells, resting and stimulated
Procedure: as §2

[6] = tested on: IFNβ; test: IFNβ induction in monocytes; format: cell-based, human
Procedure: as §2
Lentivirus production for shRNA and CRISPR: For shRNA experiments, sequences were selected from the Sigma mission 2.0 library. For CRISPR experiments, sgRNA sequences selected using the CHOPCHOP algorithm and were cloned into the lentiCRISPrv2 vector […]. Plasmids were transformed and amplified in Dh5α competent E. Coli, and purified using the EndoFree Plasmid Maxi kit (QIAGEN). For lentivirus preparation, 293T cells seeded in 6-well plates and transfected with pLKO.1 or lentiCRIPRv2 plasmids and MISSION Lentiviral Packaging Mix (Sigma), using JetPrime transfection reagent (Polyplus). After 24 h, media was changed to full growth media supplemented with 30% FBS. After 48 h, lentiviral supernatants were collected and HUVEC or U937 cells were spin-infected by centrifugation for 1 h at 37 C at 2000 rpm. Cells were selected in 3 ug/mL puromycin media for 2 weeks.

[7] = tested on: IFNβ; test: IFNβ induction (TaqMan qRT-PCR) in primary human endothelial cells after dsDNA or hCMV; format: cell-based; details: for hCMV induced IFNβ: pre-treatment, siControl and siADA2-treated endothelial cells (HUVEC, HBMVEC, HDMVEC)

Row | Compound | IRF3 activation / nuclear translocation [1] | IFNβ induction [2] | pro-inflammatory cytokine production [3] | uptake of circulating nucleoside by the vascular endothelium [4] | STING mRNA levels / expression [5] | also measured
1 | Nc1ncnc2c1ncn2[C@@H]1O[C@H](CO)[C@@H](O)[C@H]1O [Ado, adenosine] | significantly enhanced; also recorded: augmented; also recorded: enhances | significantly enhanced; also recorded: augmented; also recorded: enhances | enhances | within a few seconds | – | IFNβ induction ([2]; listed as adenosine): enhances; expression of IL-6 and TNF cytokines [3]: enhanced expression; expression of IL-6 and TNF cytokines ([3]; listed as adenosine): enhances
2 | CCNC(=O)[C@H]1O[C@@H](n2cnc3c(N)ncnc32)[C@H](O)[C@@H]1O [NECA, 5′-N-ethylcarboxamidoadenosine] | did not enhance; also recorded: no effect; also recorded: does not significantly affect | did not enhance; also recorded: does not significantly affect | – | – | – | –
3 | Nc1ncnc2c1ncn2[C@H]1C[C@H](O)[C@@H](CO)O1 [dAdo, 2′-deoxyadenosine] | significantly enhances; also recorded: augmented | significantly enhances; also recorded: augmented | enhances | within a few seconds | up-regulated | IFNβ induction [6]: enhanced
4 | OC[C@H]1O[C@@H](n2cnc3c(O)ncnc32)C[C@@H]1O [dIno, deoxyinosine] | – | – | – | – | up-regulated | IFNβ mRNA induction ([2]; prolonged supplementation of HUVEC, dsDNA treatment): specifically augmented
5 | OCCN(CCO)c1nc(N2CCCCC2)c2nc(N(CCO)CCO)nc(N3CCCCC3)c2n1 [dipyridamole] | – | – | – | – | – | IFNβ levels ([7]; TREX1-depleted cells): dampened; dIno-augmented IFNβ ([7]; cells supplemented with dIno, sensitivity to DPM): sensitive; hCMV induced IFNβ [7]: significantly reduced; also recorded: dose-dependent decrease; hCMV induced IFNβ ([7]; listed as Dipyridamole): reduced; expression of pro-inflammatory and anti-viral genes ([3]; ADA2-depleted and dAdo-supplemented cells, whole-transcriptome RNAseq): broadly inhibited; cytokine production ([3]; ADA2/CECR1-depleted cells): reduces
6 | OC[C@H]1O[C@@H](n2cnc3c2NC=NC[C@H]3O)C[C@@H]1O [pentostatin] | – | – | – | – | – | augmentation of IRF3 and IFNβ responses by extracellular Ado and dAdo ([7]; in the presence of pentostatin to inhibit ADA2, endothelial cells): enhanced
